According to PubChem BioAssay AID651781 (The Scripps Research Institute Molecular Screening Center, 2012):
The source made the active and inactive calls.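 How the source made its calls: active means IC50 at or below 10 µM; inactive means IC50 above 10 µM.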

target: GAL4 DBD-VP16 fusion transactivation (Human herpesvirus 1 VP16); assay: GAL4-VP16 transactivation reporter inhibitors, late-stage follow-up, counter-screen for SRC3 inhibitor project, cell-based, luminescence, dose response, powder samples (AID 651781); conditions: HEK293 GAL4-VP16 UAS luciferase reporter

IC50 | SMILES
6.04 µM | CCCNC(=O)c1nnsc1S(=O)(=O)c1ccc(Cl)cc1
> 35.9 µM (inactive) | O=C(COC(=O)c1ccc[nH]c1=O)Nc1ccc(N2CCCCC2)cc1
inactive | CN1C(=O)C2(C(C#N)=C(N)N(c3cc(Cl)cc(Cl)c3)C3=C2C(=O)CCC3)c2ccccc21 (stereo not drawn)
inactive | O=C(Nc1ccccc1Oc1ccccc1)c1cc([N+](=O)[O-])ccc1Cl
inactive | OCCN1CCN(C(=S)c2ccc(-c3ccccc3)cc2)CC1
inactive | Cc1ccc(OCC(=O)c2cc(C)n(-c3ccccc3)c2C)c([N+](=O)[O-])n1
inactive | CN1C(=O)C2(C(C#N)=C(N)N(c3cc(Cl)cc(Cl)c3)C3=C2C(=O)CC(C)(C)C3)c2ccccc21 (stereo not drawn)
9.65 µM | CC(C)(C)c1ccc(-c2noc(CCC(=O)Nc3cccnc3)n2)cc1
